Data published in ChEMBL document CHEMBL4138192, “Design, synthesis and evaluation of novel dihydrostilbene derivatives as potential anti-melanogenic skin-protecting agents” (Eur J Med Chem, 2018).
Calls of active or inactive are those of the source. The rule behind the calls is not given here.

Experiments:
[1] = biological target: T1, Tyrosinase (Homo sapiens) (UniProt P14679); experiment: Inhibition of tyrosinase in human A375 cells assessed as effect on alpha-MSH-induced melanin formation at 25 uM after 24 hrs relative to control; assay type: cell-based; parameters: scale not given: the % may be the effect or the level left
T1 sequence (whole entry): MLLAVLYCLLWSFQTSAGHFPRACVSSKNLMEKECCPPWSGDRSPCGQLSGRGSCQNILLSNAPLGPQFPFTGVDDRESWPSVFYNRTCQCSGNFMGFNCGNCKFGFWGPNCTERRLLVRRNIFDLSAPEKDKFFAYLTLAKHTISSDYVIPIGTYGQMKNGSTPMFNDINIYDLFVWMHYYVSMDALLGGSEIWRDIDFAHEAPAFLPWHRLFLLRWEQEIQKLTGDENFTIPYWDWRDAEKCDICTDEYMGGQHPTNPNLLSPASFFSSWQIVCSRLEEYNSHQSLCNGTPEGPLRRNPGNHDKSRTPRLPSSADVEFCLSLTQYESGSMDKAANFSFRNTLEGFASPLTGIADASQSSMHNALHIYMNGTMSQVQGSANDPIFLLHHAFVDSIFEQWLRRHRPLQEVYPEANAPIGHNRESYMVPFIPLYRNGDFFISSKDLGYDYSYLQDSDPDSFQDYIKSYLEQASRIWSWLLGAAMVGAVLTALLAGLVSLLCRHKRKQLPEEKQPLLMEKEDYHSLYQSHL

[2] = biological target: T2, Tyrosinase (Mus musculus) (UniProt P11344); experiment: Inhibition of tyrosinase in mouse B16 cells assessed as effect on alpha-MSH-induced melanin formation at 25 uM after 24 hrs relative to control; assay type: cell-based; parameters: scale not given: the % may be the effect or the level left
T2 sequence (whole entry): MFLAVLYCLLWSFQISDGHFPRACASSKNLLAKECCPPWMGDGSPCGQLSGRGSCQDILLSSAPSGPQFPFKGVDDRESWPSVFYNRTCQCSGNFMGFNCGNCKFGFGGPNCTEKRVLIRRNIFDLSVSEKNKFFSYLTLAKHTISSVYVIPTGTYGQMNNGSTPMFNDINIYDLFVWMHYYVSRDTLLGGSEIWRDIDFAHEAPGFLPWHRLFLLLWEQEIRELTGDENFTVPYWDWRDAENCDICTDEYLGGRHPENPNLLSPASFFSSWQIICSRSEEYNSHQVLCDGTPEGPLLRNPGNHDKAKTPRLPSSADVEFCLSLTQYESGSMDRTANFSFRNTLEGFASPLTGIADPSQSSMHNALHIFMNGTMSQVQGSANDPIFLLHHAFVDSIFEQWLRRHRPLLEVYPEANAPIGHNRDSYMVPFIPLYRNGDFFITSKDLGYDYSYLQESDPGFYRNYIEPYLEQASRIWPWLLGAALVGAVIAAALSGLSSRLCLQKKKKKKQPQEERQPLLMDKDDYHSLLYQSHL

[3] = Growth inhibition of mouse B16 cells at 25 uM after 48 hrs by SRB assay relative to control; assay type: cell-based; conditions: read-out: GI
[4] = Growth inhibition of human A375 cells at 25 uM after 48 hrs by SRB assay relative to control; assay type: cell-based, A-375; conditions: read-out: GI
[5] = Antioxidant activity assessed as ABTS radical scavenging activity at 25 uM after 15 mins; assay type: functional; parameters: reference not given here
[6] = test system: A-375; experiment: Inhibition of alpha-MSH-induced reactive oxygen species generation in human A375 cells at 25 uM after 4 hrs by DCFDA staining-based fluorescence assay; assay type: functional, cell-based
[7] = test system: A-375; experiment: Inhibition of alpha-MSH-induced TRP-2 expression in human A375 cells at 25 uM after 24 hrs by Western blot method; assay type: functional, cell-based
[8] = test system: A-375; experiment: Inhibition of alpha-MSH-induced TRP-1 expression in human A375 cells at 25 uM after 24 hrs by Western blot method; assay type: functional, cell-based
[9] = biological target: T2, Tyrosinase (Mus musculus); experiment: Inhibition of tyrosinase in mouse B16 cells at 25 uM using L-DOPA as substrate after 24 hrs by spectrophotometric method; assay type: cell-based
[10] = biological target: T1, Tyrosinase (Homo sapiens); experiment: Inhibition of tyrosinase in human A375 cells at 25 uM using L-DOPA as substrate after 24 hrs by spectrophotometric method; assay type: cell-based

| Activity [1] [%] | Activity [2] [%] | inhibition [9] | inhibition [10] | Compound | inhibition at 48 h, 25 µM [3] [%] | inhibition at 48 h, 25 µM [4] [%] | Activity [5] [mg.equiv] | inhibition [6] | inhibition [7] | inhibition [8] |
| --- | --- | --- | --- | --- | --- | --- | --- | --- | --- | --- |
| 104 | 94.7 |  |  | COc1ccc(C(=O)Oc2ccc(CCc3cc(OC(=O)c4ccc(OC)cc4)cc(OC(=O)c4ccc(OC)cc4)c3)cc2)cc1 | 5.12 | 6.05 |  |  |  |  |
| 93.4 | 99.2 |  |  | O=C(Oc1ccc(CCc2cc(OC(=O)c3ccc(Cl)cc3)cc(OC(=O)c3ccc(Cl)cc3)c2)cc1)c1ccc(Cl)cc1 | 5.26 | 21.5 |  |  |  |  |
| 50.5 | 76 | Active | Active | C=CC(=O)Oc1ccc(CCc2cc(OC(=O)C=C)cc(OC(=O)C=C)c2)cc1 | 13.9 | 15.6 | 15.9 | Active | Active | Active |
| 85.2 | 87 |  |  | O=C(Oc1ccc(CCc2cc(OC(=O)c3ccccc3)cc(OC(=O)c3ccccc3)c2)cc1)c1ccccc1 | 4.92 | 4.55 |  |  |  |  |
| 92.4 | 89.9 |  |  | O=C(OCc1ccccc1)Oc1ccc(CCc2cc(OC(=O)OCc3ccccc3)cc(OC(=O)OCc3ccccc3)c2)cc1 | 5.12 | 6.35 |  |  |  |  |

The remaining lines, values behind:

| Compound | Activity [1] [%] | Activity [2] [%] | inhibition [9] | inhibition [10] | inhibition at 48 h, 25 µM [3] [%] | inhibition at 48 h, 25 µM [4] [%] | Activity [5] [mg.equiv] | inhibition [6] | inhibition [7] | inhibition [8] |
| --- | --- | --- | --- | --- | --- | --- | --- | --- | --- | --- |
| CC(C)(C)C(=O)Oc1ccc(CCc2cc(OC(=O)C(C)(C)C)cc(OC(=O)C(C)(C)C)c2)cc1 | 94.6 | 93 |  |  | 6.91 | 9.53 |  |  |  |  |
| Oc1ccc(CCc2cc(O)cc(O)c2)cc1 [DIHYDRORESVERATROL] | 78 | 78.3 |  |  | 5.2 | 6.42 | 4970 | Active | Active | Active |
| Oc1ccc(/C=C/c2cc(O)cc(O)c2)cc1 [RESVERATROL] | 80.4 | 80.2 |  |  | 13.1 | 9.79 |  | Active | Active | Active |
| CCCOc1ccc(CCc2cc(OCCC)cc(OCCC)c2)cc1 | 85.1 | 94.7 |  |  | 1.34 | 3.36 | 30.2 |  |  |  |
| C=CCOc1ccc(CCc2cc(OCC=C)cc(OCC=C)c2)cc1 | 88.1 | 96.5 | inactive | Active | 1.31 | 6.83 | 119 |  |  |  |
| O=C(Oc1ccc(CCc2cc(OC(=O)C3CCCC3)cc(OC(=O)C3CCCC3)c2)cc1)C1CCCC1 | 97.2 | 95.9 |  |  | 9.69 | 14.3 |  |  |  |  |
| O=C1O[C@H]([C@@H](O)CO)C(O)=C1O [ASCORBIC ACID] | 75 | 83.7 |  |  | 4.94 | 8.63 |  |  | Active | Active |
| CCCC(=O)Oc1ccc(CCc2cc(OC(=O)CCC)cc(OC(=O)CCC)c2)cc1 | 98.9 | 96.2 | inactive | Active | 4.81 | 17.9 | 94.3 |  |  |  |
